According to patent publication US20140296281A1, “METHODS FOR SCREENING A BRCA1 LOSS-OF-FUNCTION IN A SUBJECT SUFFERING FROM A CANCER” (INSERM (INSTITUT NATIONAL DE LA SANTE ET DE LA RECHERCHE …, priority 2011, published 2014):
Entries after “also recorded” stand apart in the source; their conditions may differ.

Experiments:
BRCA1 = details: mouse mammary cells (Antonova and Mueller 2008); cited from earlier work
GR P-Ser211 = experiment: Western blot of GR P-Ser211; assay type: cell-based, human
Protocol: […] Control cells were treated with ethanol as vehicle (1:1000). Treatments were carried out in a phenol red free medium containing 5% dextran-charcoal-stripped serum for a period of 24 h in MCF-7 and MDA-MB231 and 48 h in HBE cells.
(§1) These five antibodies were then detected with an anti-rabbit HRP-conjugated secondary antibody (1:5000) (Santa Cruz, Heidelberg, Germany). Actin expression was analyzed with the human anti-β-actin mouse monoclonal primary antibody (1:20 000) (β-actin (AC-15); A5441, Sigma-Aldrich, St Quentin Fallavier, France), and then detected with an anti-mouse HRP-conjugated secondary antibody (1:2000) (Sigma-Aldrich, St Quentin Fallavier, France).

[1] = molecular target: MAPK phosphorylated p38 (P-p38) (Homo sapiens, UniProt Q16539); experiment: Western blot of phosphorylated MAPK p38; assay type: cell-based; details: MCF-7, in presence of SB
MAPK phosphorylated p38 (P-p38), sequence (Q16539 whole entry): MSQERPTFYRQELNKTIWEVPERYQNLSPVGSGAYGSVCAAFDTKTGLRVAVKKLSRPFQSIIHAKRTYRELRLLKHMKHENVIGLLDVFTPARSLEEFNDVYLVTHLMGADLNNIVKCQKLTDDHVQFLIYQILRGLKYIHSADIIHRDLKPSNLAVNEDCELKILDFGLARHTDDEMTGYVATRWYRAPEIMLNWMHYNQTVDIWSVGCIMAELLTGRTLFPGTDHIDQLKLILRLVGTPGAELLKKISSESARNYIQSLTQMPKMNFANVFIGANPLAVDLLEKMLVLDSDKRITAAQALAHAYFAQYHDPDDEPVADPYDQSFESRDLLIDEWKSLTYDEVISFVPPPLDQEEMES
Protocol: as §1

levels of P-p38 [1] | SMILES | BRCA1 expression (BRCA1) | decrease of GR P-Ser211 level (GR P-Ser211; MCF-7, DEX+SB compared to DEX treatment alone) | GR P-Ser211 level (GR P-Ser211; MCF-7, cells exposed to SB compared to basal conditions, even with BRCA1 overexpression)
 | C[C@]12CCC(=O)C=C1CC[C@@H]1[C@@H]2[C@@H](O)C[C@@]2(C)[C@H]1CC[C@]2(O)C(=O)CO [hydrocortisone] | repress; also recorded: decrease |  | 
increased | Oc1ccc(-c2nc(-c3ccncc3)c(-c3ccc(F)cc3)[nH]2)cc1 [SB] |  | also observed | constant decrease
